What all share (assay): NCI-60 cell line screen, 48 h
The test system of assay [1] is K-562 leukemia.
For assay [2], the system named is NCI-H460 lung.
Assay [3] deals with OVCAR-3 ovarian.
In assay [4] the test system is OVCAR-4 ovarian.
Assay [5] concerns OVCAR-8 ovarian.
In assay [6] the test system is TK-10 renal.
Assay [7] concerns UACC-62 melanoma.
Assay [8] has as its system MDA-MB-231 breast.
Assay [9] deals with PC-3 prostate.
For assay [10], the system named is T-47D breast.

Drawing on PubChem BioAssay (NCI), this text covers TGI and GI50 for 14 compounds.

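Compound exposure: 48 hours, 5 concentrations, 96-well plates. Here, GI50 denotes the concentration required for 50% inhibition of growth. TGI: concentration producing complete growth inhibition.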

For `Cc1cc2c(=O)cc(-c3ccc(C(=O)O)cc3)oc2c(C(=O)O)c1C`, the TGI in assay [1], in assay [2], in [3], in [4], in assay [5] and in [6] was more than 100 µM each time. The compound further displayed a TGI in [7] of more than 100 µM.

With `COC(=O)CCC(=O)C(C#N)c1ccc(Cl)cc1Cl` (stereo not drawn), the TGI in assay [1], in assay [3], in assay [6] and in assay [7] was more than 100 µM in each case.

Regarding `Cn1c(-c2ccccc2)c/c(=N\NS(C)(=O)=O)c2cc(S(=O)(=O)O)ccc21`, the TGI in assay [1], in [2], in assay [3], in assay [4], in assay [5] and in [6] was more than 100 µM each time. Also, the TGI in assay [7] was more than 100 µM.

`O=C(Nc1ncc(Cc2ccc(Cl)cc2)s1)c1ccc2c(c1)OCCO2`: the GI50 in assay [1] is 0.0453 µM; in assay [8], 0.176 µM; in [2], 0.0404 µM; in assay [3], 0.0335 µM; in [4] it was 0.547 µM; in assay [5], 0.17 µM. Besides, the GI50 in [9] was 0.047 µM; in [6], 0.245 µM; in assay [7], 0.0543 µM. For the same compound, the TGI in [1] was more than 100 µM; in assay [8], 3.15 µM; in assay [2], 38.7 µM; in [3] it was 0.398 µM; in assay [4] it was more than 52.1 µM; in [5], more than 100 µM. For the same compound, the values for the TGI in assay [9], in assay [6] and in assay [7] were more than 100 µM, more than 32.5 µM and more than 100 µM, respectively.

As for `Cc1ccccc1C(C#N)/C(=N/NC(=O)C(=O)NN)C(=O)Nc1cccc(C(F)(F)F)c1` (stereo not drawn), the TGI in assay [1], in [2], in assay [3], in assay [4], in [5] and in assay [6] was more than 100 µM in each case. In [7], this compound registered a TGI of more than 100 µM.

In the case of `N=C(N)c1ccc(-c2ccc(-c3ccco3)o2)cc1F`, the GI50 is 1.58 µM in [1]; 1.6 µM in [8]; 1.98 µM in assay [2]; 3.06 µM in assay [3]; 2.88 µM in assay [4]; 2.31 µM in [5]. Moreover, the GI50 in assay [10] was 2.05 µM; in assay [6], 1.69 µM. The TGI amounted to 3.82 µM in assay [1]; 4.01 µM in assay [8]; 4.17 µM in assay [2]; 9.77 µM in [3]; 11.1 µM in assay [4]; 6.53 µM in assay [5]. In addition, the results for the TGI in [10] and in assay [6] were 5.54 µM and 3.24 µM, respectively.

For `CCC1=C[C@H]2CN(CCc3c([nH]c4ccccc34)[C@@](C(=O)OC)(c3cc4c(cc3OC)N(C)[C@H]3[C@@](O)(C(=O)OC)[C@H](OC(C)=O)[C@]5(CC)[C@@H]6C[C@@H]6CN6CC[C@]43[C@@H]65)C2)C1`, the GI50 in [8] is 0.0864 µM; in assay [2] it was 0.0383 µM; in [3] it was 0.0105 µM; in [4], 0.375 µM; in [5] it was 0.127 µM; in [9] it was 0.0178 µM. The GI50 in [6] was 3.33 µM; in assay [7], 0.0211 µM. Besides, the TGI in assay [8] is 1.88 µM; in assay [2], 2.65 µM; in assay [3] it was 2.59 µM; in [4] it was more than 25 µM; in assay [5], 5.8 µM; in assay [9] it was 4.24 µM. The TGI in [6] came out at 8.13 µM; in assay [7], 5.12 µM.

Consider `C#CCOc1c(OC)cc(C(=O)/C(C)=C/c2cccc(N=[N+]=[N-])c2)cc1OC`, for which the GI50 in [1] was 0.0383 µM; in [8], 0.695 µM; in [2], 0.329 µM; in assay [3], 0.0519 µM; in assay [4], 1.19 µM; in assay [5], 0.427 µM. Further, the GI50 in assay [9] was 0.132 µM; in assay [6], 0.325 µM; in assay [7], 0.253 µM. Moreover, the TGI in assay [1] is more than 100 µM; in assay [8], 26.1 µM; in assay [2], 20.2 µM; in assay [3] it was 0.291 µM; in [4], more than 100 µM; in assay [5], more than 100 µM. The results for the TGI in [9], in assay [6] and in assay [7] were more than 100 µM, 38.9 µM and more than 100 µM, respectively.

As for `O=C(Cc1nc2ccccc2s1)NC12CC3CC(CC(C3)C1)C2`, the TGI in assay [1], in assay [2], in assay [4], in assay [5], in assay [6] and in assay [7] was more than 100 µM each time.

For the compound `N#Cc1ccccc1/C=N/O`, the TGI in [1] is more than 65.6 µM; in assay [2], more than 100 µM; in assay [3] it was more than 100 µM; in assay [4] it was more than 100 µM; in [5], more than 100 µM; in [6] it was more than 100 µM. This compound also had a TGI in assay [7] of more than 100 µM.

Consider `O=[N+]([O-])c1ccc(C2N3CCCCC3[C@@H]3c4[nH]c5ccccc5c4CCN23)cc1` (stereo partly drawn), for which the TGI is more than 100 µM in [1]; 40.9 µM in assay [2]; 38.6 µM in assay [3]; more than 100 µM in assay [4]; more than 100 µM in assay [5]; 51.1 µM in assay [6]. The TGI in assay [7] was found to be 18.6 µM.

As for `COC(=O)C1CCc2nnc(-c3cccnc3)n21` (stereo not drawn), the TGI in assay [1], in assay [2], in assay [3], in assay [4], in assay [5] and in assay [6] was more than 100 µM in each case. Moreover, the TGI in [7] is more than 100 µM.

Take `O=c1nc2[nH]nc(-c3ccccc3)c2n[nH]1`: the TGI in [1], in assay [2], in assay [3], in [4], in assay [5] and in assay [6] was more than 100 µM in each case. The TGI in [7] is more than 100 µM.

As for `CC(C)(C)C1CCN(C(=O)c2ccccc2)CC1`, the TGI in [1], in assay [2], in assay [3], in [5], in [6] and in assay [7] was more than 100 µM in each case.
